{
  "source": "patent US20250151721A1",
  "about": "“MOSQUITO ATTRACTANT COMPOSITIONS THAT MIMIC HUMAN ODOR IN THE MOSQUITO BRAIN” (TRUSTEES OF PRINCETON UNIVERSITY, priority 2021, published 2025)",
  "key": {"[1]": {"tested_on": "Orco+ glomeruli of the antennal lobe", "assay": "Two-photon calcium imaging of odour-evoked activity across Orco+ glomeruli", "type": "in vivo, Aedes aegypti", "from_the_text": "(§1) We designed a two-photon microscope that incorporates both resonant scanning^69 and remote focusing^70,71 to achieve rapid, volumetric, in vivo neural imaging. Remote focusing allows rapid switching of the imaging plane by moving a small, lightweight mirror located upstream in the imaging path. […] In diagnostic tests, transition times for switching between two planes were less than 6 ms.\nWe custom-designed a mosquito holder with a 3D-printed plastic frame and thin stainless-steel plate (FIG. 2C, thickness 0.001 inch). A tiny mosquito-head-sized hole was photo-chemically etched on the plate (ETCHIT Company). To prepare for imaging, we anaesthetized a female on ice for ˜1 min, pushed the anterodorsal side of her head into the hole, and fixed it with UV glue (RapidFix 6121830ES). The antennae, maxillary palps, and proboscis remained below the metal plate and contacted neither the plate nor the glue. […]\n(§2) We used the ScanImage^72 package in Matlab to control the microscope and acquire images. For each individual, we chose either the right or left antennal lobe (AL) and recorded movies of odour-evoked activity (starting 7-30 sec before and continuing 20-60 sec after synthetic-odorant puffs; ˜30 sec before, ˜140 sec after puffs of complex extract). […] Laser power as measured at the sample plane was 10 mW. […]"}, "[2]": {"tested_on": "human-sensitive (H) glomerulus of the antennal lobe", "assay": "Two-photon calcium imaging of odour-evoked activity in the human-sensitive (H) glomerulus", "type": "in vivo, Aedes aegypti", "conditions": "for response of H glomerulus: panel of 50 single odorants at approximately the same vapour-phase concentration (that of sulcatone in 1× human odour)", "from_the_text": "as §1\n(§3) We custom-designed a mosquito holder with a 3D-printed plastic frame and thin stainless-steel plate (FIG. 2C, thickness 0.001 inch). A tiny mosquito-head-sized hole was photo-chemically etched on the plate (ETCHIT Company). To prepare for imaging, we anaesthetized a female on ice for ˜1 min, pushed the anterodorsal side of her head into the hole, and fixed it with UV glue (RapidFix 6121830ES). The antennae, maxillary palps, and proboscis remained below the metal plate and contacted neither the plate nor the glue. We added room-temperature saline (103 mM NaCl, 3 mM KCl, 5 mM TES, 26 mM NaHCO3, 1 mM NaH2PO4, 1.5 mM CaCl2), 4 mM MgCl2, 10 mM Trehalose, 10 mM Glucose; pH 7.1) to the holder and used sharp forceps to remove a section of the head capsule (including both cuticle and the edge of the eyes) from the part of the head protruding through the metal plate. During imaging, we continuously perfused saline bubbled with carbogen (5% CO2, 95% O2) through the holder and across the open head capsule at 125 ml/hour.\n(§4) We used the ScanImage^72 package in Matlab to control the microscope and acquire images. For each individual, we chose either the right or left antennal lobe (AL) and recorded movies of odour-evoked activity (starting 7-30 sec before and continuing 20-60 sec after synthetic-odorant puffs; ˜30 sec before, ˜140 sec after puffs of complex extract). The movies covered the entire AL in Z-stacks that were 4 μm apart at 128×128 pixel resolution (22 stacks total, green channel only for the orco-T2A-QF2-QUAS-GCaMP 6f strain; 28 stacks, green and red channels for the brp>jGCaMP7s strain). The resulting voxel size was approximately 0.9×0.8×4 μm^3, and the volumetric imaging rate was 3.76 Hz for the orco-T2A-QF2-QUAS-GCaMP 6f strain and 2.95 Hz for the brp>jGCaMP7s strain. We increased the laser power exponentially with depth (ranging from 7.5 to 10 mW) to account for light decay and scattering in deeper tissues. Laser power as measured at the sample plane was 10 mW. After recording odour-evoked activity, we acquired 30-40 high-resolution structural volumes at high laser power to aid registration and downstream analysis. For this, we imaged the AL in 120-180 z-stacks, 1 μm apart, at 256×256 pixel resolution.\nThe three target glomeruli could be reliably identified across brains based on position and responses to key reference odorants. Human-sensitive glomerulus H was located in the anterior AL, adjacent to a landmark non-Orco glomerulus in our two-photon images (unlabeled area surrounded by Orco+ glomeruli; FIGS. 8A-B), and responded to 10^−2 heptanal. Animal-sensitive glomerulus A was located in the dorsal AL and responded to 10^−2 phenol. Broadly tuned glomerulus B was located in the posterior-medial AL and responded to 10^−2 benzaldehyde. Glomeruli H, A, and B tentatively correspond to V3, MD2, and PD1, respectively, in a previously published atlas^35, but we cannot be sure without molecular markers.\nWe used area under df/f curves as a metric for neural activity. For single-odorant stimuli, which evoked single df/f peaks, we defined the peak boundaries by first locating the max (for activation) or min (for inhibition) points in the df/f curve and then extending from the max/min point until df/f dropped to background levels. For natural odour extracts, which sometimes evoked multiple peaks, we integrated df/f values from desorption of the focusing trap to the end of neural recording (0 to 140 sec). […]"}, "[3]": {"tested_on": "animal-sensitive (A) glomerulus of the antennal lobe", "assay": "Two-photon calcium imaging of odour-evoked activity in the animal-sensitive (A) glomerulus", "type": "in vivo, Aedes aegypti", "conditions": "for activation of A glomerulus: panel of 50 single odorants at approximately the same vapour-phase concentration", "from_the_text": "We designed a two-photon microscope that incorporates both resonant scanning^69 and remote focusing^70,71 to achieve rapid, volumetric, in vivo neural imaging. Remote focusing allows rapid switching of the imaging plane by moving a small, lightweight mirror located upstream in the imaging path.\nas §3, §4\nWe used area under df/f curves as a metric for neural activity. For single-odorant stimuli, which evoked single df/f peaks, we defined the peak boundaries by first locating the max (for activation) or min (for inhibition) points in the df/f curve and then extending from the max/min point until df/f dropped to background levels. For natural odour extracts, which sometimes evoked multiple peaks, we integrated df/f values from desorption of the focusing trap to the end of neural recording (0 to 140 sec)."}, "[4]": {"tested_on": "broadly tuned (B) glomerulus of the antennal lobe", "assay": "Two-photon calcium imaging of odour-evoked activity in the broadly tuned (B) glomerulus", "type": "in vivo, Aedes aegypti", "from_the_text": "as §1, §3\nas §2, with “extract). The movies covered the entire AL in Z-stacks that were 4 μm apart at 128×128 pixel resolution (22 stacks total, green channel only for the orco-T2A-QF2-QUAS-GCaMP 6f strain; 28 stacks, green and red channels for the brp>jGCaMP7s strain).” for “extract).”"}, "[5]": {"tested_on": "female Aedes aegypti mosquitoes", "assay": "Two-port olfactometer host-preference assay", "type": "in vivo", "conditions": "in the absence of human or animal odour", "experimental": "We tested the host preference of mated, non-blood-fed, 7-14 day old females that had been housed overnight with access to water only (no sucrose). We used a two-port olfactometer for choice and no-choice tests involving live hosts (FIGS. 1A and C) or sleeves/hair (FIGS. 1B and D) as previously described3. We first acclimated 75-100 female mosquitoes in the olfactometer for 5 min, then opened a sliding door and activated a fan to pull air through the two host chambers and expose mosquitoes to host odour. Mosquitoes were able to fly upwind, sample the host-odour streams, and choose to enter either host port. After 6 min, we counted the number of mosquitoes trapped in each host port. For two-choice trials with live hosts, one chamber contained a human hand and arm up to the elbow (belonging to one of six 22-43 year old individuals: 3 female, 3 male; 3 Caucasian, 2 East Asian, 1 South Asian). The human exhaled gently near the opening of the chamber once every 30 sec to provide a source of breath. The other chamber contained a guinea pig (Cavia porcellus; one of two 4-5 year old pigmented females), rat (Rattus norvegicus domesticus; one of two 2-6 month old Sprague-Dawley males), or button quail (Coturnix coturnix; one 2-3 year old female). […]"}, "[6]": {"conditions": "synthetic odorants singly or as combo, vapour-phase concentrations characteristic of 1× human odour, 3-sec puffs"}, "[7]": {"conditions": "concentrations calibrated to about ⅕th of activity evoked by 1× human odour, paraffin oil"}},
  "data": [
    {"smiles": "CC(=O)CCC=C(C)C", "note": "[sulcatone]", "values": [
      {"measurement": "glomerular activity in response to the compound", "setting": "[1]; at its concentration in 1× human odour", "result": "did not see consistent activity"},
      {"measurement": "glomerular activity in response to the compound", "setting": "[1]; higher doses (data not shown)", "result": "several glomeruli responded"}
    ]},
    {"smiles": "CCCCCCCCCCC=O", "note": "[undecanal]", "values": [
      {"measurement": "response of H glomerulus", "setting": "[2]", "result": "strong activity"},
      {"measurement": "duration of H glomerulus activity beyond the 3-second puff", "setting": "[2]; single odorant at equal vapour-phase concentration", "result": "≥ 40", "unit": "s"},
      {"measurement": "activity evoked in H glomerulus", "setting": "[2]; [6]", "result": "strong and prolonged activity"}
    ]},
    {"smiles": "CS(C)(=O)=O", "note": "[dimethyl sulfone]", "values": [
      {"measurement": "activation of A glomerulus", "setting": "[3]", "result": "strongly activated"}
    ]},
    {"smiles": "CCCCCCCCCC=O", "note": "[Decanal]", "values": [
      {"measurement": "activity evoked in H glomerulus", "setting": "[2]; [7]", "result": "evoked activity in their cognate glomeruli"},
      {"measurement": "activity evoked in H glomerulus", "setting": "[2]; [6]", "result": "strong and prolonged activity"}
    ]},
    {"smiles": "CCCCCCC=O", "note": "[heptanal]", "values": [
      {"measurement": "response of H glomerulus to reference odorant", "setting": "[2]; 10^−2 dilution", "result": "responded"}
    ]},
    {"smiles": "CCCCCCO", "note": "[1-hexanol]", "values": [
      {"measurement": "activity evoked in B glomerulus", "setting": "[4]; [7]", "result": "evoked activity in their cognate glomeruli"}
    ]},
    {"smiles": "CCCCCC=O", "note": "[hexanal]", "values": [
      {"measurement": "response of H glomerulus", "setting": "[2]", "result": "no response"}
    ]},
    {"smiles": "Oc1ccccc1", "note": "[phenol]", "values": [
      {"measurement": "response of A glomerulus to reference odorant", "setting": "[3]; 10^−2 dilution", "result": "responded"},
      {"measurement": "activation of A glomerulus", "setting": "[3]", "result": "strongly activated"}
    ]},
    {"smiles": "Cc1ccc(O)cc1", "note": "[p-cresol]", "values": [
      {"measurement": "activation of A glomerulus", "setting": "[3]", "result": "strongly activated"}
    ]},
    {"smiles": "O=Cc1ccccc1", "note": "[benzaldehyde]", "values": [
      {"measurement": "response of B glomerulus to reference odorant", "setting": "[4]; 10^−2 dilution", "result": "responded"}
    ]},
    {"smiles": "CC(=O)C(C)O", "note": "(stereo not shown) [acetoin]", "values": [
      {"measurement": "activation of A glomerulus", "setting": "[3]", "result": "strongly activated"},
      {"measurement": "activity evoked in A glomerulus", "setting": "[3]; physiological concentrations (as in 1× human odour)", "result": "too low to evoke consistent activity"},
      {"measurement": "activation of B glomerulus", "setting": "[4]; synthetic odorants singly or as combo, vapour-phase concentrations characteristic of 1× human odour", "result": "strongly activated"}
    ]},
    {"smiles": "O=C=O", "note": "[synthetic CO2, CO2]", "values": [
      {"measurement": "response of female mosquitoes in no-choice olfactometer trials", "setting": "[5]", "result": "minimal"}
    ]}
  ]
}
